Experimental findings from PubChem BioAssay (NCI) are described below.

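Grown in 96-well plates, cells were treated for 48 hours with each compound at five concentrations. Insufficient inhibition: endpoint recorded as highest concentration tested. Definition used: TGI = concentration required for complete inhibition of growth.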

The first assay deals with NCI-H460 lung. Nature of the assay: growth of human tumour cells (NCI), 48 h.
The compound `CC(=O)n1c2c(c(=O)n1-c1ccccc1)S(=O)CCC2` (centres undefined) had a TGI above 100 µM.
For the compound `CC(=O)OC1(C#N)CC2OC1C1C2N=NN1C(=O)OC(C)(C)C` (centres undefined), the TGI was above 100 µM.
For the compound `O=C1CC(C[C@H](O)C2CCCCC2O)CC(=O)N1Cc1ccccc1` (some centres undefined), the TGI was above 100 µM.
In turn, `O=c1[nH]cc(COCCO)c(=O)[nH]1` gave a TGI above 100 µM.

A further assay concerns SF-268 CNS. Put plainly: growth of human tumour cells (NCI), 48 h.
For the compound `CC(=O)n1c2c(c(=O)n1-c1ccccc1)S(=O)CCC2` (centres undefined), the TGI was above 100 µM.
The compound `CC(=O)OC1(C#N)CC2OC1C1C2N=NN1C(=O)OC(C)(C)C` (centres undefined) showed a TGI above 100 µM.
Same read-out and setting: under `O=C1CC(C[C@H](O)C2CCCCC2O)CC(=O)N1Cc1ccccc1` (some centres undefined) stands above 100 µM.
Turning to `O=c1[nH]cc(COCCO)c(=O)[nH]1`, the TGI was above 100 µM.

The next assay deals with SF-539 CNS. Put plainly: growth of human tumour cells (NCI), 48 h.
As for `CC(=O)n1c2c(c(=O)n1-c1ccccc1)S(=O)CCC2` (centres undefined), the TGI is above 100 µM.
In turn, `CC(=O)OC1(C#N)CC2OC1C1C2N=NN1C(=O)OC(C)(C)C` (centres undefined) displayed a TGI of 52.7 µM.
The compound `O=C1CC(C[C@H](O)C2CCCCC2O)CC(=O)N1Cc1ccccc1` (some centres undefined) gave a TGI above 100 µM.
`O=c1[nH]cc(COCCO)c(=O)[nH]1` had a TGI above 100 µM.

The test system of a further assay is NCI-H226 lung. Put plainly: growth of human tumour cells (NCI), 48 h.
For `CC(=O)n1c2c(c(=O)n1-c1ccccc1)S(=O)CCC2` (centres undefined), the TGI is above 100 µM.
The same measure, in the same setting: the result for `O=C1CC(C[C@H](O)C2CCCCC2O)CC(=O)N1Cc1ccccc1` (some centres undefined) reads above 100 µM; that for `O=c1[nH]cc(COCCO)c(=O)[nH]1`, above 100 µM.

A further assay deals with OVCAR-4 ovarian. Nature of the assay: growth of human tumour cells (NCI), 48 h.
`CC(=O)n1c2c(c(=O)n1-c1ccccc1)S(=O)CCC2` (centres undefined) displayed a TGI of 44.4 µM.
Still for that read-out and setting: under `CC(=O)OC1(C#N)CC2OC1C1C2N=NN1C(=O)OC(C)(C)C` (centres undefined) stands above 100 µM.
Compound `O=C1CC(C[C@H](O)C2CCCCC2O)CC(=O)N1Cc1ccccc1` (some centres undefined) registered a TGI above 100 µM.
As to `O=c1[nH]cc(COCCO)c(=O)[nH]1`, the TGI is above 100 µM.

The next assay relates to LOX IMVI melanoma. Put plainly: growth of human tumour cells (NCI), 48 h.
The compound `CC(=O)n1c2c(c(=O)n1-c1ccccc1)S(=O)CCC2` (centres undefined) showed a TGI above 100 µM.
`CC(=O)OC1(C#N)CC2OC1C1C2N=NN1C(=O)OC(C)(C)C` (centres undefined) displayed a TGI of 69.4 µM.
Still for that read-out and setting: the result for `O=C1CC(C[C@H](O)C2CCCCC2O)CC(=O)N1Cc1ccccc1` (some centres undefined) reads above 100 µM; that for `O=c1[nH]cc(COCCO)c(=O)[nH]1`, above 100 µM.

The test system of another assay is SF-295 CNS. Nature of the assay: growth of human tumour cells (NCI), 48 h.
On to `CC(=O)n1c2c(c(=O)n1-c1ccccc1)S(=O)CCC2` (centres undefined), for which the TGI is above 100 µM.
As to `O=C1CC(C[C@H](O)C2CCCCC2O)CC(=O)N1Cc1ccccc1` (some centres undefined), the TGI was above 100 µM.
Still for that read-out and setting: the result for `O=c1[nH]cc(COCCO)c(=O)[nH]1` reads above 100 µM.

Another assay concerns DMS 273 small cell lung. Put plainly: growth of human tumour cells (NCI), 48 h.
For the compound `CC(=O)n1c2c(c(=O)n1-c1ccccc1)S(=O)CCC2` (centres undefined), the TGI was above 100 µM.
`CC(=O)OC1(C#N)CC2OC1C1C2N=NN1C(=O)OC(C)(C)C` (centres undefined) gave a TGI of 73.8 µM.
Same read-out and setting: the result for `O=C1CC(C[C@H](O)C2CCCCC2O)CC(=O)N1Cc1ccccc1` (some centres undefined) reads above 100 µM; that for `O=c1[nH]cc(COCCO)c(=O)[nH]1`, above 100 µM.

The test system of a further assay is SNB-75 CNS. Nature of the assay: growth of human tumour cells (NCI), 48 h.
As to `CC(=O)n1c2c(c(=O)n1-c1ccccc1)S(=O)CCC2` (centres undefined), the TGI is above 100 µM.
`CC(=O)OC1(C#N)CC2OC1C1C2N=NN1C(=O)OC(C)(C)C` (centres undefined) showed a TGI above 100 µM.
Same read-out and setting: the result for `O=C1CC(C[C@H](O)C2CCCCC2O)CC(=O)N1Cc1ccccc1` (some centres undefined) reads above 100 µM; that for `O=c1[nH]cc(COCCO)c(=O)[nH]1`, above 100 µM.

Another assay relates to SK-MEL-2 melanoma. Put plainly: growth of human tumour cells (NCI), 48 h.
The compound `CC(=O)n1c2c(c(=O)n1-c1ccccc1)S(=O)CCC2` (centres undefined) registered a TGI above 100 µM.
On the same count and under the same terms, under `CC(=O)OC1(C#N)CC2OC1C1C2N=NN1C(=O)OC(C)(C)C` (centres undefined) stands 68.9 µM.
In turn, `O=C1CC(C[C@H](O)C2CCCCC2O)CC(=O)N1Cc1ccccc1` (some centres undefined) returned a TGI above 100 µM.
Consider `O=c1[nH]cc(COCCO)c(=O)[nH]1`, for which the TGI is above 100 µM.

For the next assay, the system named is DMS 114 small cell lung. Nature of the assay: growth of human tumour cells (NCI), 48 h.
As for `CC(=O)n1c2c(c(=O)n1-c1ccccc1)S(=O)CCC2` (centres undefined), the TGI is above 100 µM.
Same read-out and setting: the result for `CC(=O)OC1(C#N)CC2OC1C1C2N=NN1C(=O)OC(C)(C)C` (centres undefined) reads 65.6 µM.
On the same count and under the same terms, under `O=c1[nH]cc(COCCO)c(=O)[nH]1` stands above 100 µM.

In another assay the test system is SNB-78 CNS. Nature of the assay: growth of human tumour cells (NCI), 48 h.
As for `CC(=O)n1c2c(c(=O)n1-c1ccccc1)S(=O)CCC2` (centres undefined), the TGI was above 100 µM.
Still for that read-out and setting: the result for `CC(=O)OC1(C#N)CC2OC1C1C2N=NN1C(=O)OC(C)(C)C` (centres undefined) reads 73.2 µM; that for `O=C1CC(C[C@H](O)C2CCCCC2O)CC(=O)N1Cc1ccccc1` (some centres undefined), above 100 µM.
Compound `O=c1[nH]cc(COCCO)c(=O)[nH]1` had a TGI above 100 µM.

The next assay concerns OVCAR-5 ovarian. Put plainly: growth of human tumour cells (NCI), 48 h.
Compound `CC(=O)n1c2c(c(=O)n1-c1ccccc1)S(=O)CCC2` (centres undefined) returned a TGI above 100 µM.
In the case of `CC(=O)OC1(C#N)CC2OC1C1C2N=NN1C(=O)OC(C)(C)C` (centres undefined), the TGI was above 100 µM.
Still for that read-out and setting: the result for `O=C1CC(C[C@H](O)C2CCCCC2O)CC(=O)N1Cc1ccccc1` (some centres undefined) reads above 100 µM; that for `O=c1[nH]cc(COCCO)c(=O)[nH]1`, above 100 µM.

The subject of a further assay is LXFL 529 NSCLC. Nature of the assay: growth of human tumour cells (NCI), 48 h.
On to `CC(=O)n1c2c(c(=O)n1-c1ccccc1)S(=O)CCC2` (centres undefined), for which the TGI is above 100 µM.
On the same count and under the same terms, the result for `CC(=O)OC1(C#N)CC2OC1C1C2N=NN1C(=O)OC(C)(C)C` (centres undefined) reads above 100 µM; that for `O=C1CC(C[C@H](O)C2CCCCC2O)CC(=O)N1Cc1ccccc1` (some centres undefined), above 100 µM.
Compound `O=c1[nH]cc(COCCO)c(=O)[nH]1` returned a TGI above 100 µM.

In another assay the test system is SK-MEL-5 melanoma. Put plainly: growth of human tumour cells (NCI), 48 h.
On to `CC(=O)n1c2c(c(=O)n1-c1ccccc1)S(=O)CCC2` (centres undefined), for which the TGI is above 100 µM.
